Results reported in patent US4617292A, “Pharmaceutical compositions and method for inhibiting histamine release tocopheryl glycoside” (Sunstar Kabushiki Kaisha, priority 1984, dated 1986).
Read-outs that look alike come from different tables or passages of the source.

What was measured:
Acute toxicity (LD50) = details: in vivo
mast cells = assay: Inhibition of histamine release from mast cells due to an antigen-antibody reaction (in vitro; ovalbumin-sensitized); format: cell-based, Wister male rats; details: Mast cell; rat peritoneal mast cells; antigenic ovalbumin 10^-4 g/ml; 5 min pre-incubation, 10 min incubation at 37° C.; corrected for spontaneous release; read-out: concentration showing 50% inhibition of histamine release
[1] = ip, read-out: LD50 values (i.p.)
[2] = po, read-out: LD50 values (p.o.)

Row | SMILES | LD50 (Acute toxicity (LD50); [1]) | LD50 (Acute toxicity (LD50); [2]) | IC50 (mast cells)
1 | Cc1c(C)c2c(c(C)c1OC1O[C@H](CO)[C@@H](O)[C@H](O)[C@H]1O)CCC(C)(CCCC(C)CCCC(C)CCCC(C)C)O2 (mixture of isomers) [dl-α-tocopherylglucoside, dl-α-Tocopherylglucoside] | > 500 mg/kg | > 5000 mg/kg | ~50 µg/mL
2 | Cc1c(C)c2c(c(C)c1O[C@@H]1O[C@H](CO)[C@@H](O)[C@H](O)[C@@H]1O)CCC(C)(CCCC(C)CCCC(C)CCCC(C)C)O2 (mixture of isomers) [dl-α-tocopherylmannoside, dl-α-Tocopherylmannoside] | > 500 mg/kg | > 5000 mg/kg | ~15 µg/mL
